{
  "source": "paper PMC12701685",
  "about": "“Support Vector Machine Identification of Small Molecule Binders to an Understudied Allosteric Site of SARS‐CoV‐2 Mpro for Next‐Generation PROTAC‐Based Therapeutics” (Archiv Der Pharmazie, 2025)",
  "key": {"[1]": {"system": "SARS‐CoV‐2 replication in Vero E6 cells", "conditions": "cited from earlier work"}, "SARS‐CoV‐2 Mpro [2]": {"biological_target": "T1, SARS‐CoV‐2 Mpro (Severe acute respiratory syndrome coronavirus 2, UniProt P0DTD1)", "assay": "FRET peptide substrate enzymatic assay", "assay_type": "biochemical", "conditions": "compound 20 µM; for remaining activity at 20 µM: enzyme 75 nM, substrate 25 µM, read-out: Residual activity (%)", "procedure": "The three compounds identified as binders in the MST assay were tested for their inhibitory properties against SARS‐CoV‐2 Mpro at a 20 µM concentration (see Section 4 for details).\nInhibitory activities of the compounds against SARS‐CoV‐2 Mpro were determined as described previously by cleavage of a fluorescence resonance energy transfer (FRET) peptide substrate (Dabcyl‐[…]‐Edans), purchased from Genescript (New Jersey, USA).\nFluorescence measurements were carried out in white flat‐bottom 96‐well plates (Greiner Bio‐One, Kremsmünster, Upper Austria) using a Tecan Spark 10M plate reader (Tecan Group Ltd., Männedorf, Switzerland). Each well contained a final volume of 200 µL, consisting of 180 µL assay buffer (20 mM TRIS‐HCl pH 7.5, 20 mM NaCl, 0.1 mM EDTA, 1 mM DTT), 5 µL enzyme solution (final concentration 75 nM), 10 µL inhibitor in DMSO (final concentration 20 µM) or pure DMSO as a negative control, and 5 µL substrate solution in DMSO (final concentration 25 µM). The reaction was monitored for 10 min at 25°C, with fluorescence readings taken at 30‐s intervals. The substrate was excited at 335 nm, and fluorescence emission was recorded at 493 nm. The remaining enzymatic activity was determined by comparing the substrate hydrolysis rate in reaction mixtures containing the inhibitors to that of the DMSO control. Only the first 5 min of the fluorescence curves (Supporting Information S1: Figure S3) were used for the calculation to obtain the linear part."}, "SARS‐CoV‐2 Mpro [3]": {"biological_target": "T1, SARS‐CoV‐2 Mpro", "assay": "Microscale thermophoresis (MST) binding check and binding affinity", "conditions": "for RA (Response Amplitude): MST binding affinity experiment, RA ≥ 1.5 indicative of binding; for Kd: MST, labeled Mpro 35 nM, 16 1:1 serial dilutions, two independent experiments, read-out: K d ± K d confidence"}, "SARS‐CoV‐2 Mpro [4]": {"biological_target": "T1, SARS‐CoV‐2 Mpro", "conditions": "non‐covalent inhibitors; cited from earlier work"}, "SARS-CoV-1": {"system": "SARS-CoV-1", "conditions": "cited from earlier work"}, "[5]": {"system": "virus‐infected VeroE6 cells", "conditions": "cytopathic effect (CPE) inhibition; cited from earlier work"}, "[6]": {"system": "virus‐infected VeroE6 cells", "conditions": "plaque reduction; cited from earlier work"}, "infected cells": {"system": "infected cells", "conditions": "cited from earlier work"}},
  "note": "Where two headings read alike, the source gives them in different places.",
  "data": [
    {"smiles": "O=C(NC1CCNCC1)c1n[nH]cc1NC(=O)c1c(Cl)cccc1Cl", "note": "[AT7519, N‐(4‐piperidinyl)‐4‐(2,6‐dichlorobenzoylamino)‐1H‐ Pyrazole‐3‐Carboxamide]", "values": [
      {"measurement": "EC50", "setting": "[1]", "result": 25.2, "unit": "µM"}
    ]},
    {"smiles": "Cc1ccc(C(=O)NCCCNC(=O)c2ccccn2)cc1C", "note": "[compound 7]", "values": [
      {"measurement": "Effect on enzyme activity (in words)", "setting": "SARS‐CoV‐2 Mpro [2]", "result": "no effect on the catalytic activity"},
      {"measurement": "remaining activity at 20 µM", "setting": "SARS‐CoV‐2 Mpro [2]", "result": 105, "unit": "%"},
      {"measurement": "RA (Response Amplitude)", "setting": "SARS‐CoV‐2 Mpro [3]", "result": 3.4},
      {"measurement": "Kd", "setting": "SARS‐CoV‐2 Mpro [3]", "result": "2.8 ± 0.9", "unit": "µM"}
    ]},
    {"smiles": "CCOc1cccc(-c2nn3c(-c4cccnc4)nnc3s2)c1", "note": "[compound 8]", "values": [
      {"measurement": "Effect on enzyme activity (in words)", "setting": "SARS‐CoV‐2 Mpro [2]", "result": "no effect on the catalytic activity"},
      {"measurement": "remaining activity at 20 µM", "setting": "SARS‐CoV‐2 Mpro [2]", "result": 101, "unit": "%"},
      {"measurement": "RA (Response Amplitude)", "setting": "SARS‐CoV‐2 Mpro [3]", "result": 4.7},
      {"measurement": "Kd", "setting": "SARS‐CoV‐2 Mpro [3]", "result": "23.9 ± 7.4", "unit": "µM"}
    ]},
    {"smiles": "Cc1cc2ncn(S(=O)(=O)c3ccc(S(N)(=O)=O)cc3)c2cc1C", "note": "[compound 9]", "values": [
      {"measurement": "Effect on enzyme activity (in words)", "setting": "SARS‐CoV‐2 Mpro [2]", "result": "no effect on the catalytic activity"},
      {"measurement": "remaining activity at 20 µM", "setting": "SARS‐CoV‐2 Mpro [2]", "result": 106, "unit": "%"},
      {"measurement": "RA (Response Amplitude)", "setting": "SARS‐CoV‐2 Mpro [3]", "result": 2.7},
      {"measurement": "Kd", "setting": "SARS‐CoV‐2 Mpro [3]", "result": "39 ± 23.4", "unit": "µM"}
    ]},
    {"smiles": "O=C(c1c[nH]c(=O)[nH]c1=O)N1CCN(c2ccc(Cl)c(Cl)c2)CC1", "note": "[compound 23]", "values": [
      {"measurement": "IC50", "setting": "SARS‐CoV‐2 Mpro [4]", "result": "5.1 ± 0.63", "unit": "µM"}
    ]},
    {"smiles": "CCC(C)(C)NC(=O)[C@@H](c1ccn(C)c1)N(C(=O)Cn1nnc2ccccc21)c1ccc(NC(C)=O)cc1", "note": "[compound 42]", "values": [
      {"measurement": "IC50", "setting": "SARS-CoV-1", "result": 6.2, "unit": "µM"}
    ]},
    {"smiles": "O=C(Cn1nnc2ccccc21)N(Cc1cccc(Cl)c1)c1ccc(-c2c[nH]cn2)cc1", "note": "[compound 47]", "values": [
      {"measurement": "EC50", "setting": "[5]", "result": 0.5, "unit": "µM"},
      {"measurement": "EC50", "setting": "[6]", "result": 0.56, "unit": "µM"}
    ]},
    {"smiles": "O=C(NCc1cccs1)[C@@H]1CN(C(=O)c2cccnc2)CCN1c1ccc(Cl)c(Cl)c1", "note": "[compound 51]", "values": [
      {"measurement": "EC50", "setting": "infected cells", "result": "~1.1", "unit": "µM"},
      {"measurement": "IC50", "setting": "SARS‐CoV‐2 Mpro [4]", "result": "~0.4", "unit": "µM"}
    ]}
  ]
}
